Test results taken from patent US20110098177A1, “METHODS AND COMPOSITIONS OF PLANT MICRONUTRIENTS” (NOVUS INTERNATIONAL INC., priority 2006, published 2011).

Experiments:
Assay type in all cases: in vivo
Tygress tomato plants [1] = assay: Foliar nutrient concentration 2 weeks after treatment, greenhouse tomato (Examples 4-6); settings: for B concentration in tomato leaves / Ca concentration in tomato leaves / Cu concentration in tomato leaves / Fe concentration in tomato leaves / K concentration in tomato leaves / Mg concentration in tomato leaves / Mn concentration in tomato leaves / N concentration in tomato leaves / P concentration in tomato leaves: 2 weeks after Zn treatment; for Foliar Zn concentration: tomato leaves 2 weeks after Zn treatment
Summary of the method: (§1)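 Tygress tomato in 2-gallon pots of micronutrient-poor medium (negligible Fe, Zn, Mn, Cu) in greenhouse; foliar treatments at 5 WAT in 200 mL/plant water with non-ionic surfactant. Newest non-applied leaves analysed 2 weeks before and after treatment; marketable fruit harvested three times from 10 WAT, graded. RCBD, 6 replications, LSD 5%.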

Tygress tomato plants [2] = assay: Yields of tomato fruits, greenhouse (Examples 4-6); settings: for Marketable yield: tomato fruits
Summary of the method: as §1

[3] = test system: Patriot bell pepper plants; assay: Marketable yield, open-field bell pepper (Examples 7-10); settings: open field; lb/acre/season: BIOX-Z 1.3, Cu 6.7, M 23.0, Fe 3.2, INC 4.0, INZ 0.6, CM 10.0, GZ 1.0, GF 4.0, EDZ 1.4, EDM 23.0
Summary of the method: (§2)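 Open-field 2008 trial, Balm FL; 'Tygress' tomato and 'Patriot' pepper transplants on drip-fed raised beds. Foliar micronutrient sprays at 3 and 5 WAT (BIOX-CM at 4 and 5), 60 gal/acre with surfactant. Youngest mature leaves sampled 6 WAT; RCBD, 5 replications, Fisher's LSD 5%.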

Tygress tomato plants [4] = assay: Nutrient concentration of tomato fruits at 10 WAT, open field (Examples 7-10); settings: for B concentration of tomato fruits / Ca concentration of tomato fruits / Cu concentration of tomato fruits / Fe concentration of tomato fruits / K concentration of tomato fruits / Mg concentration of tomato fruits / Mn concentration of tomato fruits / N concentration of tomato fruits / P concentration of tomato fruits / Zn concentration of tomato fruits: 10 WAT, open field, product rate as Table 17
Summary of the method: as §2

With `CSCCC(O)C(=O)[O-].CSCCC(O)C(=O)[O-].[Zn+2]` (stereo not drawn) [BIOX-Z, Zn-HMTBA] the “Foliar Zn concentration compared with control (in words)” value (Tygress tomato plants [1]; 0.8 lb/acre, 2 weeks after application) was “significantly higher than control”, the “B concentration in tomato leaves” value (Tygress tomato plants [1]; Zn 0.1 lb/acre) was 25 ppm and the “Ca concentration in tomato leaves” value (Tygress tomato plants [1]; Zn 0.1 lb/acre) was 0.6%. For the same compound, the “Cu concentration in tomato leaves” value (Tygress tomato plants [1]; Zn 0.1 lb/acre) was 8 ppm, the “Fe concentration in tomato leaves” value (Tygress tomato plants [1]; Zn 0.1 lb/acre) was 98 ppm and the “K concentration in tomato leaves” value (Tygress tomato plants [1]; Zn 0.1 lb/acre) was 3.5%. The “Mg concentration in tomato leaves” value (Tygress tomato plants [1]; Zn 0.1 lb/acre) was 0.3%, the “Mn concentration in tomato leaves” value (Tygress tomato plants [1]; Zn 0.1 lb/acre) was 55 ppm and the “N concentration in tomato leaves” value (Tygress tomato plants [1]; Zn 0.1 lb/acre) was 3.6%. For the same compound, the “P concentration in tomato leaves” value (Tygress tomato plants [1]; Zn 0.1 lb/acre) was 0.5%, the “Foliar Zn concentration” value (Tygress tomato plants [1]; Zn 0.1 lb/acre) was 86 bc ppm and the “B concentration in tomato leaves” value (Tygress tomato plants [1]; Zn 0.2 lb/acre) was 27 ppm. For the same compound, the “Ca concentration in tomato leaves” value (Tygress tomato plants [1]; Zn 0.2 lb/acre) was 0.6%, the “Cu concentration in tomato leaves” value (Tygress tomato plants [1]; Zn 0.2 lb/acre) was 6 ppm and the “Fe concentration in tomato leaves” value (Tygress tomato plants [1]; Zn 0.2 lb/acre) was 88 ppm. For the same compound, the “K concentration in tomato leaves” value (Tygress tomato plants [1]; Zn 0.2 lb/acre) was 3.7%, the “Mg concentration in tomato leaves” value (Tygress tomato plants [1]; Zn 0.2 lb/acre) was 0.3% and the “Mn concentration in tomato leaves” value (Tygress tomato plants [1]; Zn 0.2 lb/acre) was 56 ppm. The “N concentration in tomato leaves” value (Tygress tomato plants [1]; Zn 0.2 lb/acre) was 3.3%, the “P concentration in tomato leaves” value (Tygress tomato plants [1]; Zn 0.2 lb/acre) was 0.5% and the “Foliar Zn concentration” value (Tygress tomato plants [1]; Zn 0.2 lb/acre) was 112 bc ppm. The “B concentration in tomato leaves” value (Tygress tomato plants [1]; Zn 0.4 lb/acre) was 28 ppm, the “Ca concentration in tomato leaves” value (Tygress tomato plants [1]; Zn 0.4 lb/acre) was 0.6% and the “Cu concentration in tomato leaves” value (Tygress tomato plants [1]; Zn 0.4 lb/acre) was 6 ppm. For the same compound, the “Fe concentration in tomato leaves” value (Tygress tomato plants [1]; Zn 0.4 lb/acre) was 88 ppm, the “K concentration in tomato leaves” value (Tygress tomato plants [1]; Zn 0.4 lb/acre) was 3.5% and the “Mg concentration in tomato leaves” value (Tygress tomato plants [1]; Zn 0.4 lb/acre) was 0.3%. The “Mn concentration in tomato leaves” value (Tygress tomato plants [1]; Zn 0.4 lb/acre) was 59 ppm, the “N concentration in tomato leaves” value (Tygress tomato plants [1]; Zn 0.4 lb/acre) was 3.4% and the “P concentration in tomato leaves” value (Tygress tomato plants [1]; Zn 0.4 lb/acre) was 0.5%. The “Foliar Zn concentration” value (Tygress tomato plants [1]; Zn 0.4 lb/acre) was 128 bc ppm, the “B concentration in tomato leaves” value (Tygress tomato plants [1]; Zn 0.8 lb/acre) was 25 ppm and the “Ca concentration in tomato leaves” value (Tygress tomato plants [1]; Zn 0.8 lb/acre) was 0.5%. For the same compound, the “Cu concentration in tomato leaves” value (Tygress tomato plants [1]; Zn 0.8 lb/acre) was 4 ppm, the “Fe concentration in tomato leaves” value (Tygress tomato plants [1]; Zn 0.8 lb/acre) was 93 ppm and the “K concentration in tomato leaves” value (Tygress tomato plants [1]; Zn 0.8 lb/acre) was 3.4%. The “Mg concentration in tomato leaves” value (Tygress tomato plants [1]; Zn 0.8 lb/acre) was 0.3%, the “Mn concentration in tomato leaves” value (Tygress tomato plants [1]; Zn 0.8 lb/acre) was 54 ppm and the “N concentration in tomato leaves” value (Tygress tomato plants [1]; Zn 0.8 lb/acre) was 3.5%. For the same compound, the “P concentration in tomato leaves” value (Tygress tomato plants [1]; Zn 0.8 lb/acre) was 0.5%, the “Foliar Zn concentration” value (Tygress tomato plants [1]; Zn 0.8 lb/acre) was 500 ab ppm and the “Marketable yields compared with the other Zn formulations (in words)” value (Tygress tomato plants [2]; BIOX-Z at a concentration higher than 0.1 lb/acre) was “statistically similar to the other Zn supplementation treatment formulations”. The Marketable yield (Tygress tomato plants [2]; Zn 0.1 lb/acre) was 2.3 b lb/plant, the Marketable yield (Tygress tomato plants [2]; Zn 0.2 lb/acre) was 3.7 a lb/plant and the Marketable yield (Tygress tomato plants [2]; Zn 0.4 lb/acre) was 3.9 a lb/plant. For the same compound, the Marketable yield (Tygress tomato plants [2]; Zn 0.8 lb/acre) was 3.8 a lb/plant, the “Marketable yield, Bell Pepper” value [3] was 8.4 ton/acre and the “B concentration of tomato fruits” value (Tygress tomato plants [4]) was 20 ppm. The “Ca concentration of tomato fruits” value (Tygress tomato plants [4]) was 0.2%, the “Cu concentration of tomato fruits” value (Tygress tomato plants [4]) was 21 ppm and the “Fe concentration of tomato fruits” value (Tygress tomato plants [4]) was 82 ppm. The “K concentration of tomato fruits” value (Tygress tomato plants [4]) was 8.0%, the “Mg concentration of tomato fruits” value (Tygress tomato plants [4]) was 0.36% and the “Mn concentration of tomato fruits” value (Tygress tomato plants [4]) was 38 ppm. For the same compound, the “N concentration of tomato fruits” value (Tygress tomato plants [4]) was 4.3%, the “P concentration of tomato fruits” value (Tygress tomato plants [4]) was 0.63% and the “Zn concentration of tomato fruits” value (Tygress tomato plants [4]) was 308 ppm.
In the case of EDTA chelated zinc [BIOX-EDZ], the “B concentration in tomato leaves” value (Tygress tomato plants [1]; Zn 0.4 lb/acre) is reported as 21 ppm, the “Ca concentration in tomato leaves” value (Tygress tomato plants [1]; Zn 0.4 lb/acre) is reported as 0.6% and the “Cu concentration in tomato leaves” value (Tygress tomato plants [1]; Zn 0.4 lb/acre) is reported as 7 ppm. For the same compound, the “Fe concentration in tomato leaves” value (Tygress tomato plants [1]; Zn 0.4 lb/acre) was 95 ppm, the “K concentration in tomato leaves” value (Tygress tomato plants [1]; Zn 0.4 lb/acre) was 3.6% and the “Mg concentration in tomato leaves” value (Tygress tomato plants [1]; Zn 0.4 lb/acre) was 0.3%. For the same compound, the “Mn concentration in tomato leaves” value (Tygress tomato plants [1]; Zn 0.4 lb/acre) was 54 ppm, the “N concentration in tomato leaves” value (Tygress tomato plants [1]; Zn 0.4 lb/acre) was 3.6% and the “P concentration in tomato leaves” value (Tygress tomato plants [1]; Zn 0.4 lb/acre) was 0.5%. The “Foliar Zn concentration” value (Tygress tomato plants [1]; Zn 0.4 lb/acre) was 214.bc ppm, the Marketable yield (Tygress tomato plants [2]; Zn 0.4 lb/acre) was 3.5 a lb/plant and the “Marketable yield, Bell Pepper” value [3] was 8.1 ton/acre. For the same compound, the “B concentration of tomato fruits” value (Tygress tomato plants [4]) was 22 ppm, the “Ca concentration of tomato fruits” value (Tygress tomato plants [4]) was 0.2% and the “Cu concentration of tomato fruits” value (Tygress tomato plants [4]) was 23 ppm. The “Fe concentration of tomato fruits” value (Tygress tomato plants [4]) was 82 ppm, the “K concentration of tomato fruits” value (Tygress tomato plants [4]) was 8.5% and the “Mg concentration of tomato fruits” value (Tygress tomato plants [4]) was 0.37%. The “Mn concentration of tomato fruits” value (Tygress tomato plants [4]) was 43 ppm, the “N concentration of tomato fruits” value (Tygress tomato plants [4]) was 4.4% and the “P concentration of tomato fruits” value (Tygress tomato plants [4]) was 0.66%. For the same compound, the “Zn concentration of tomato fruits” value (Tygress tomato plants [4]) was 1018 ppm.
For Fe-HMTBA [BIOX-Fe], the “Marketable yield, Bell Pepper” value [3] was 7.2 ton/acre, the “Nutrient concentration of tomato fruits: B” value (Tygress tomato plants [4]; tomato fruits at 10 WAT) was 21 ppm and the “Nutrient concentration of tomato fruits: Ca” value (Tygress tomato plants [4]; tomato fruits at 10 WAT) was 0.2%. For the same compound, the “Nutrient concentration of tomato fruits: Cu” value (Tygress tomato plants [4]; tomato fruits at 10 WAT) was 21 ppm, the “Nutrient concentration of tomato fruits: Fe” value (Tygress tomato plants [4]; tomato fruits at 10 WAT) was 77 ppm and the “Nutrient concentration of tomato fruits: K” value (Tygress tomato plants [4]; tomato fruits at 10 WAT) was 8.2%. For the same compound, the “Nutrient concentration of tomato fruits: Mg” value (Tygress tomato plants [4]; tomato fruits at 10 WAT) was 0.37%, the “Nutrient concentration of tomato fruits: Mn” value (Tygress tomato plants [4]; tomato fruits at 10 WAT) was 37 ppm and the “Nutrient concentration of tomato fruits: N” value (Tygress tomato plants [4]; tomato fruits at 10 WAT) was 4.2%. The “Nutrient concentration of tomato fruits: P” value (Tygress tomato plants [4]; tomato fruits at 10 WAT) was 0.69% and the “Nutrient concentration of tomato fruits: Zn” value (Tygress tomato plants [4]; tomato fruits at 10 WAT) was 294 ppm.
